This is an account of results in patent US4229435A, “Preparation of blood fraction” (priority 1978, dated 1980).

For this assay, the target named is T1, F VIII (Homo sapiens, UniProt P00451).
T1 construct: from tissue; host or cells: human citrated blood plasma
T1 sequence (P00451 20-1332 limits assumed): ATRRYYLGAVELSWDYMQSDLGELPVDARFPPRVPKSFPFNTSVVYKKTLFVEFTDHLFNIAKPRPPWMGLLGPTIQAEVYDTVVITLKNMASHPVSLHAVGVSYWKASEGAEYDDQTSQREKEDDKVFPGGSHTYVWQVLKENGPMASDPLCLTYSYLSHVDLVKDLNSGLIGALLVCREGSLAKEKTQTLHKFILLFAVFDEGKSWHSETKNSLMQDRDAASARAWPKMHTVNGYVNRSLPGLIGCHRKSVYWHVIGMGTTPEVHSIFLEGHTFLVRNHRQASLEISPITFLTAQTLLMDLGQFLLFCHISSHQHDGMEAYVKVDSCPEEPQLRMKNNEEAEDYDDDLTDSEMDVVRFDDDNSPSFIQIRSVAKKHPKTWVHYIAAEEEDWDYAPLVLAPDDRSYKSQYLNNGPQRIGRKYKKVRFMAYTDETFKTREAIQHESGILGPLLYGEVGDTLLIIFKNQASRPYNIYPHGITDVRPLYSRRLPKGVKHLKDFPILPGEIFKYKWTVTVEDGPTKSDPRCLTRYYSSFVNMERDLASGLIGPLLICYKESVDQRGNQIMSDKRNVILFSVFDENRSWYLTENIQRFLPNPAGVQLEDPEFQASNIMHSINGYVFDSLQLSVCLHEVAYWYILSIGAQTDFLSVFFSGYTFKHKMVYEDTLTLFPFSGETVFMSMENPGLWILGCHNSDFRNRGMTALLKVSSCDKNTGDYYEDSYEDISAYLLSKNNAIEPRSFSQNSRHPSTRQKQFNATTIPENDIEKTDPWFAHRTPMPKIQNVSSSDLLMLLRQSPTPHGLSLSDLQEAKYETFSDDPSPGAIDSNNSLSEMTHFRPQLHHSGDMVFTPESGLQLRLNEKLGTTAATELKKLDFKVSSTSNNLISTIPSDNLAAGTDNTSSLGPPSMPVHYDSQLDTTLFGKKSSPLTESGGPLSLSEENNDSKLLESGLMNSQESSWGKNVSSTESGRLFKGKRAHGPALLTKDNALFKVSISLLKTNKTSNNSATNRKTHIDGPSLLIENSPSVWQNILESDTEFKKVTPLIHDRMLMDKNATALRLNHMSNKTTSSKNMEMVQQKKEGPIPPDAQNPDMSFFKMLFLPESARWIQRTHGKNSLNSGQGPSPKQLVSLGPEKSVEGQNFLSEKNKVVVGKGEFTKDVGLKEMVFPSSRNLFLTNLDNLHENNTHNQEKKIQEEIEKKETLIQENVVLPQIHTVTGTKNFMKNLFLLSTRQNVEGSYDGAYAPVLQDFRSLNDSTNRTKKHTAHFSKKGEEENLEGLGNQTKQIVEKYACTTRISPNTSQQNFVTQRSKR
T1 sequence (P00451 1668-2351 limits assumed): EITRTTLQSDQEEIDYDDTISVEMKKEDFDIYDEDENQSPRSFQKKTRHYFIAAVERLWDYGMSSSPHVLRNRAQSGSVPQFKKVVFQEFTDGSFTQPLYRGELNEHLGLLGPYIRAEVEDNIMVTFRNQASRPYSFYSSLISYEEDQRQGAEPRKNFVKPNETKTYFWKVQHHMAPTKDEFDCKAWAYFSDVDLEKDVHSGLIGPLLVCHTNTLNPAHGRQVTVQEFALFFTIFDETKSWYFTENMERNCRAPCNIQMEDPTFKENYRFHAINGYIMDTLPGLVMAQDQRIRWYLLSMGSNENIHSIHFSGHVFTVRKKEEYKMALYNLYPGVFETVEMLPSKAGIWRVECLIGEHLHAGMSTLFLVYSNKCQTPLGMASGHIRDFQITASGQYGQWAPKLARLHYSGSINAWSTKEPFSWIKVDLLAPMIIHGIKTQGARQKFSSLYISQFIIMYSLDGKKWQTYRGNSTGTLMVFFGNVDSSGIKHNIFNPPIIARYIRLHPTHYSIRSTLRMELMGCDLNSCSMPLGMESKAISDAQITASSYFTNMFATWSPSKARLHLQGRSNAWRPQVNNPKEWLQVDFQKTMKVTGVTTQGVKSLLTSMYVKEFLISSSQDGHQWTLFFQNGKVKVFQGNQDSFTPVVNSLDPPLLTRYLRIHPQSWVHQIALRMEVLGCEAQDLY
The experiment in a line: Coagulation factor VIII activity in plasma after reducing agent + iodoacetic acid. Type of assay: biochemical. Conditions: 5 min 37° C., then iodoacetic acid. As for the experimental part: Human blood with anti-coagulating agent (9 parts blood+1 part 3.8% trisodium citrate) is centrifuged and the following tests with plasma were carried out:
The plasma is divided into 8 ml portions, which are preheated at 37° C. for 5 min. DTT is added in different concentrations, see table 1 below, and is incubated for 5 min. at 37° C. Then iodoacetic acid, 3 mol per mol DTT, is added, and incubation takes place for 15 min. at 37° C. The plasma samples are distributed in portions of about 0.2 ml and are immediately frozen at -70° C. Testing of different coagulation factors is made in known manner.
The plasma is divided into 8 ml portions, which are preheated at 37° C. for 5 min. DTE is added in different concentrations (see table 2), and is incubated for 5 minutes at 37° C. Then, iodoacetic acid (3 mol per mol DTE) is added and incubation is carried out for 15 minutes at 37° C. The plasma samples are distributed in portions of about 0.2 ml and are immediately frozen at -70° C. Testing of different coagulation factors is made in a manner known per se.
The plasma is divided into 8 ml portions, which are preheated at 37° C. for 5 minutes. Lipoic acid is added in different concentrations (see table 3), and is incubated for 5 minutes at 37° C. Then, iodoacetic acid (3 mol per mol lipoic acid) is added and incubation is carried out for 15 minutes at 37° C. The plasma samples are distributed in portions of about 0.2 ml and are immediately frozen at -70° C. Testing of different coagulation factors is made in a manner known per se.
The plasma is divided into 8 ml portions, which are preheated at 37° C. for 5 minutes. Mercaptoethanol is added in different concentrations (see table 4), and is incubated for 5 minutes at 37° C. Then, iodoacetic acid (3 mol per mol mercaptoethanol) is added and incubation is carried out for 15 minutes at 37° C. The plasma samples are distributed in portions of about 0.2 ml and are immediately frozen at -70° C. Testing of different coagulation factors is made in a manner known per se.
The plasma is divided into 8 ml portions, which are preheated at 37° C. for 5 minutes. Potassium borohydride is added in different concentrations (see table 5, and is incubated for 5 minutes at 37° C. Then, iodoacetic acid (3 mol per mol potassium borohydride) is added and incubation is carried out for 15 minutes at 37° C. The plasma samples are distributed in portions of about 0.2 ml and are immediately frozen at -70° C. Testing of different coagulation factors is made in a manner known per se.

Where [1] appears, read: human, 0.1 mg reducing agent/ml plasma (sample C).

As for `O[C@H](CS)[C@H](O)CS` [DTT, dithiothreitol], the activity at 100 µg/mL is, setting by setting: under setting [1], 107%; (human, Table 1 sample D, 0.1 mg DTT/ml plasma) 86%. The activity at 600 µg/mL (human, 0.6 mg reducing agent/ml plasma) was 27%. In addition, the “Coagulation factor F VIII” value (plasma + 0.4 mg reducing agent) is given as 52 % of control.
`O=C(O)CCCCC1CCSS1` (centres unmarked) [lipoic acid]: the activity at 100 µg/mL under setting [1] was determined as 111%. Further, the “Coagulation factor F VIII” value is, setting by setting: (plasma + 0.2 mg reducing agent) 98 % of control; (plasma + 0.4 mg reducing agent) 111 % of control.
The matching figures for `O[C@H](CS)[C@@H](O)CS` [DTE, dithioerythritol]: 108%, 116 % of control and 93 % of control.
In the case of `OCCS` [mercaptoethanol], the “Coagulation factor F VIII” value is given as 98 % of control (plasma + 0.2 mg reducing agent) and 85 % of control (plasma + 0.4 mg reducing agent).
Consider `[BH4-].[K+]` [KBH4, potassium borohydride], for which the “Coagulation factor F VIII” value is, setting by setting: (plasma + 0.14 mg reducing agent) 122 % of control; (plasma + 0.28 mg reducing agent) 105 % of control.
